Test results: US10633386B2, “BET protein degraders” (THE REGENTS OF THE UNIVERSITY OF MICHIGAN, priority 2016, dated 2020)

Tests used:
MDA-MB-231 = assay: Cell growth inhibition (CellTiter-Glo), MDA-MB-231; type: cell-based, human; details: MDA-MB-231 cells, 4 days
Procedure: (§1) Cell growth inhibitory activity of representative BET bromodomain degraders was determined using CellTiter-Glo® Luminescent Cell Viability Assay. Cells were seeded in 384-well white opaque cell culture plates at a density of 2,000 cells/well with serially diluted compounds and incubated at 37° C. in an atmosphere of 95% air and 5% CO2 for 4 days. Cell viability was determined using the CellTiter-Glo® Luminescent Cell Viability Assay Kit (Promega, Madison, Wis.) according to the manufacture's instruction. Briefly, a volume of CellTiter-Glo® Reagent equal to the volume of cell culture medium was added to each well, and then the plates were incubated at room temperature for 10-20 minutes. The luminescent signal was measured using a Tecan Infinite M1000 multimode microplate reader (Tecan, Morrisville, N.C.). The half maximal inhibitory concentration (IC50) was calculated using the GraphPad Prism 5 software (GraphPad Software, La Jolla, Calif.).

MOLM-13 = assay: Cell growth inhibition (CellTiter-Glo), MOLM-13; type: cell-based; details: MOLM-13 cells, 4 days
Procedure: as §1

| SMILES | IC50 (MDA-MB-231; Homo sapiens, MDA-MB-231, 96 h) | IC50 (MOLM-13; Homo sapiens, MOLM-13, 96 h) | IC50 (MDA-MB-231) | IC50 (MOLM-13) |
| --- | --- | --- | --- | --- |
| CCn1nc(C2CC2)cc1Nc1nc(C(=O)NCCCOCCOCCOCCCNc2cccc3c2CN(C2CCC(=O)NC2=O)C3=O)nc2[nH]c3cc(-c4c(C)noc4C)c(OC)cc3c12 (stereo not shown) [compound 67] | 2 nM | 0.7 nM | – | – |
| CCn1nc(C2CC2)cc1Nc1nc(C(=O)NCCOCCNc2cccc3c2C(=O)N(C2CCC(=O)NC2=O)C3=O)nc2[nH]c3cc(-c4c(C)noc4C)c(OC)cc3c12 (stereo not shown) [Cpd. No. 12] | 109 nM | 17.8 nM | – | – |
| CCn1nc(C2CC2)cc1Nc1nc(C(=O)NCCCCCc2cccc3c2C(=O)N(C2CCC(=O)NC2=O)C3=O)nc2[nH]c3cc(-c4c(C)noc4C)c(OC)cc3c12 (stereo not shown) [Cpd. No. 60] | 11.2 nM | 1.2 nM | – | – |
| CCn1nc(C2CC2)cc1Nc1nc(C(=O)NCCCCNC(=O)COc2cccc3c2C(=O)N(C2CCC(=O)NC2=O)C3=O)nc2[nH]c3cc(-c4c(C)noc4C)c(OC)cc3c12 (stereo not shown) [Cpd. No. 1] | 49.5 nM | 12.2 nM | – | – |
| CCn1nc(C2CC2)cc1Nc1nc(C(=O)NCCOCCCc2cccc3c2CN(C2CCC(=O)NC2=O)C3=O)nc2[nH]c3cc(-c4c(C)noc4C)c(OC)cc3c12 (stereo not shown) [Cpd. No. 59] | 24.4 nM | 0.64 nM | – | – |
| CCn1nc(C2CC2)cc1Nc1nc(C(=O)NCCCCCNc2cccc3c2C(=O)N(C2CCC(=O)NC2=O)C3=O)nc2[nH]c3cc(-c4c(C)noc4C)c(OC)cc3c12 (stereo not shown) [compound 10] | 4.8 nM | 0.9 nM | – | – |
| CCn1nc(C2CC2)cc1Nc1nc(C(=O)NCCOCCOCCOCCNc2cccc3c2C(=O)N(C2CCC(=O)NC2=O)C3=O)nc2[nH]c3cc(-c4c(C)noc4C)c(OC)cc3c12 (stereo not shown) [compound 14] | 33 nM | 1.2 nM | – | – |
| CCn1nc(C2CC2)cc1Nc1nc(C(=O)NCCOCCNc2cccc3c2CN(C2CCC(=O)NC2=O)C3=O)nc2[nH]c3cc(-c4c(C)noc4C)c(OC)cc3c12 (stereo not shown) [compound 22] | 63.8 nM | 12.4 nM | – | – |
| CCn1nc(C2CC2)cc1Nc1nc(C(=O)NCCCOCCOCCOCCCNC(=O)COc2cccc3c2C(=O)N(C2CCC(=O)NC2=O)C3=O)nc2[nH]c3cc(-c4c(C)noc4C)c(OC)cc3c12 (stereo not shown) [Cpd. No. 2] | 75.6 nM | 16.3 nM | – | – |
| CCn1nc(C2CC2)cc1Nc1nc(C(=O)NCCOCCOCCOCCOCCOCCOCCOCCNc2cccc3c2C(=O)N(C2CCC(=O)NC2=O)C3=O)nc2[nH]c3cc(-c4c(C)noc4C)c(OC)cc3c12 (stereo not shown) [compound 16] | 128 nM | 10.2 nM | – | – |
| CCn1nc(C2CC2)cc1Nc1nc(C(=O)NCCOCCOCCC(=O)Nc2cccc3c2CN(C2CCC(=O)NC2=O)C3=O)nc2[nH]c3cc(-c4c(C)noc4C)c(OC)cc3c12 (stereo not shown) [Cpd. No. 63] | 231 nM | 41.5 nM | – | – |
| CCn1nc(C2CC2)cc1Nc1nc(C(=O)NCCOCCOCCNc2cccc3c2C(=O)N(C2CCC(=O)NC2=O)C3=O)nc2[nH]c3cc(-c4c(C)noc4C)c(OC)cc3c12 (stereo not shown) [Cpd. No. 13] | 267 nM | – | – | 8 nM |
| CCn1nc(C2CC2)cc1Nc1nc(C(=O)NCCOCCOCCOCCOCCNc2cccc3c2CN(C2CCC(=O)NC2=O)C3=O)nc2[nH]c3cc(-c4c(C)noc4C)c(OC)cc3c12 (stereo not shown) [compound 25] | 25.1 nM | 3.5 nM | – | – |
| CCn1nc(C2CC2)cc1Nc1nc(C(=O)NCCCOCCCCOCCCNc2cccc3c2C(=O)N(C2CCC(=O)NC2=O)C3=O)nc2[nH]c3cc(-c4c(C)noc4C)c(OC)cc3c12 (stereo not shown) [compound 15] | 1.7 nM | 0.7 nM | – | – |
| CCn1nc(C2CC2)cc1Nc1nc(COCCCCNc2cccc3c2C(=O)N(C2CCC(=O)NC2=O)C3=O)nc2[nH]c3cc(-c4c(C)noc4C)c(OC)cc3c12 (stereo not shown) [compound 18] | 5.4 nM | 2.9 nM | – | – |
| CCn1nc(C2CC2)cc1Nc1nc(C(=O)NCCOCCCc2cccc3c2C(=O)N(C2CCC(=O)NC2=O)C3=O)nc2[nH]c3cc(-c4c(C)noc4C)c(OC)cc3c12 (stereo not shown) [Cpd. No. 62] | 24.7 nM | 3.4 nM | – | – |
| CCn1nc(C2CC2)cc1Nc1nc(C(=O)NCCCCCCNc2cccc3c2C(=O)N(C2CCC(=O)NC2=O)C3=O)nc2[nH]c3cc(-c4c(C)noc4C)c(OC)cc3c12 (stereo not shown) [compound 11] | 8 nM | 1.6 nM | – | – |
| CCn1nc(C2CC2)cc1Nc1nc(C(=O)NCCCNc2cccc3c2C(=O)N(C2CCC(=O)NC2=O)C3=O)nc2[nH]c3cc(-c4c(C)noc4C)c(OC)cc3c12 (stereo not shown) [Cpd. No. 8] | 57.6 nM | 6.3 nM | – | – |

Continued, values first:

| IC50 (MDA-MB-231; Homo sapiens, MDA-MB-231, 96 h) | IC50 (MOLM-13; Homo sapiens, MOLM-13, 96 h) | IC50 (MDA-MB-231) | IC50 (MOLM-13) | SMILES |
| --- | --- | --- | --- | --- |
| 4.1 nM | 1.2 nM | – | – | CCn1nc(C2CC2)cc1Nc1nc(C(=O)NCCCOCCOCCOCCNc2cccc3c2CN(C2CCC(=O)NC2=O)C3=O)nc2[nH]c3cc(-c4c(C)noc4C)c(OC)cc3c12 (stereo not shown) [compound 68] |
| 98.7 nM | 23.6 nM | – | – | CCn1nc(C2CC2)cc1Nc1nc(C(=O)NCCOCCOCCOCCC(=O)Nc2cccc3c2CN(C2CCC(=O)NC2=O)C3=O)nc2[nH]c3cc(-c4c(C)noc4C)c(OC)cc3c12 (stereo not shown) [Cpd. No. 64] |
| 275 nM | 47.3 nM | – | – | CCn1nc(C2CC2)cc1Nc1nc(C(=O)NCCCCNc2cccc3c2CN(C2CCC(=O)NC2=O)C3=O)nc2[nH]c3cc(-c4c(C)noc4C)c(OC)cc3c12 (stereo not shown) [compound 66] |
| 4.2 nM | 1.2 nM | – | – | CCn1nc(C2CC2)cc1Nc1nc(C(=O)NCCCOCCOCCOCC#Cc2cccc3c2CN(C2CCC(=O)NC2=O)C3=O)nc2[nH]c3cc(-c4c(C)noc4C)c(OC)cc3c12 (stereo not shown) [compound 72] |
| 94.8 nM | 18.2 nM | – | – | CCn1nc(C2CC2)cc1Nc1nc(C(=O)NCCCOCCOCCOCCCNC(=O)CNc2cccc3c2C(=O)N(C2CCC(=O)NC2=O)C3=O)nc2[nH]c3cc(-c4c(C)noc4C)c(OC)cc3c12 (stereo not shown) [Cpd. No. 3] |
| – | – | 438 nM | 47.1 nM | CCn1nc(C2CC2)cc1Nc1nc(C(=O)NCCOCCOCCNc2cccc3c2C(=O)N(C2CCC(=O)NC2=O)C3=O)nc2[nH]c3cc(-c4c(C)noc4C)c(OC)cc3c12 (stereo not shown) [compound 65] |
| 83.4 nM | 16.7 nM | – | – | CCn1nc(C2CC2)cc1Nc1nc(C(=O)NCCOCCOCCNc2cccc3c2CN(C2CCC(=O)NC2=O)C3=O)nc2[nH]c3cc(-c4c(C)noc4C)c(OC)cc3c12 (stereo not shown) [compound 23] |
| 3.2 nM | 0.9 nM | – | – | CCn1nc(C2CC2)cc1Nc1nc(CNCCCOCCOCCOCCCNc2cccc3c2C(=O)N(C2CCC(=O)NC2=O)C3=O)nc2[nH]c3cc(-c4c(C)noc4C)c(OC)cc3c12 (stereo not shown) [compound 20] |
| 453 nM | 65 nM | – | – | CCn1nc(C2CC2)cc1Nc1nc(C(=O)NCCNc2cccc3c2C(=O)N(C2CCC(=O)NC2=O)C3=O)nc2[nH]c3cc(-c4c(C)noc4C)c(OC)cc3c12 (stereo not shown) [Cpd. No. 7] |
| 330 nM | 115 nM | – | – | CCn1nc(C2CC2)cc1Nc1nc(CNCCCCNc2cccc3c2C(=O)N(C2CCC(=O)NC2=O)C3=O)nc2[nH]c3cc(-c4c(C)noc4C)c(OC)cc3c12 (stereo not shown) [compound 17] |
| 69.6 nM | 1.5 nM | – | – | CCn1nc(C2CC2)cc1Nc1nc(C(=O)NCCOCCOCCOCCCc2cccc3c2C(=O)N(C2CCC(=O)NC2=O)C3=O)nc2[nH]c3cc(-c4c(C)noc4C)c(OC)cc3c12 (stereo not shown) [Cpd. No. 61] |
| 41 nM | 8.5 nM | – | – | CCn1nc(C2CC2)cc1Nc1nc(C(=O)NCCOCCOCCOCCOCCCc2cccc3c2CN(C2CCC(=O)NC2=O)C3=O)nc2[nH]c3cc(-c4c(C)noc4C)c(OC)cc3c12 (stereo not shown) [compound 70] |
| 74.9 nM | 12.1 nM | – | – | CCn1nc(C2CC2)cc1Nc1nc(C(=O)NCCOCCOCCOCCNc2cccc3c2CN(C2CCC(=O)NC2=O)C3=O)nc2[nH]c3cc(-c4c(C)noc4C)c(OC)cc3c12 (stereo not shown) [compound 24] |
| 16.1 nM | 2.9 nM | – | – | CCn1nc(C2CC2)cc1Nc1nc(C(=O)NCCCOCCOCCNc2cccc3c2CN(C2CCC(=O)NC2=O)C3=O)nc2[nH]c3cc(-c4c(C)noc4C)c(OC)cc3c12 (stereo not shown) [compound 69] |
| 1420 nM | 379 nM | – | – | CCn1nc(C2CC2)cc1Nc1nc(CNCCCCNc2cccc3c2CN(C2CCC(=O)NC2=O)C3=O)nc2[nH]c3cc(-c4c(C)noc4C)c(OC)cc3c12 (stereo not shown) [compound 19] |
| 50 nM | 6.9 nM | – | – | CCn1nc(C2CC2)cc1Nc1nc(C(=O)NCCOCCOCCOCCOc2cccc3c2C(=O)N(C2CCC(=O)NC2=O)C3=O)nc2[nH]c3cc(-c4c(C)noc4C)c(OC)cc3c12 (stereo not shown) [Cpd. No. 5] |
| 543 nM | 84.6 nM | – | – | CCn1nc(C2CC2)cc1Nc1nc(CNCCCOCCCCOCCCNc2cccc3c2C(=O)N(C2CCC(=O)NC2=O)C3=O)nc2[nH]c3cc(-c4c(C)noc4C)c(OC)cc3c12 (stereo not shown) [compound 21] |
